Like-named read-outs stand apart in the source and are kept apart here. Each block holds one compound with its values, some of them ahead of it.
Assays:
PL A2 = settings: cited from earlier work
Porcine PLA2 IB = molecular target: T1, Porcine PLA2 IB (Sus scrofa, UniProt P00592); assay: continuous fluorimetric assay for PLA2 activity (PPyrPG vesicles); assay type: biochemical; settings: 37° C.
T1 construct: purchased
Description: A continuous fluorimetric assay for PLA2 activity described in the literature was used to determine IC (Leslie, C C and Gelb, M H (2004) Methods in Molecular Biology “Assaying phospholipase A2 activity”, 284: 229-242, Singer, A G, et al. (2002) Journal of Biological Chemistry “Interfacial kinetic and binding properties of the complete set of human and mouse groups I, II, V, X, and XII secreted phospholipases A2”, 277: 48535-48549, Bezzine, S, et al. (2000) Journal of Biological Chemistry “Exogenously added human group X secreted phospholipase A(2) but not the group IB, IIA, and V enzymes efficiently release arachidonic acid from adherent mammalian cells”, 275: 3179-3191) and references therein.
Generally, this assay used a phosphatidylglycerol (or phosphatidylmethanol) substrate with a pyrene fluorophore on the terminal end of the sn-2 fatty acyl chain. […] The effect of a given inhibitor and inhibitor concentration on any given phospholipase can be determined. […]
In this example, the procedure was performed as follows: • 1. […] The fluorescence was read using an excitation of 342 nm and an emission of 395 nm.
In this example, the IC50 was calculated using the BioDataFit 1.02 (Four Parameter Model) software package. […]

[1] = pharmokinetic study, IV and oral; assay type: in vivo, mice; settings: for AUC(0-inf) / Cmax / Tmax / half-life: mouse, plasma; for half-life: read-out: t½ (converted)
Procedure: This example characterized ILY-4001 [2-(3-(2-amino-2-oxoacetyl)-1-(biphenyl-2-ylmethyl)-2-methyl-1H-indol-4-yloxy)acetic acid], alternatively referred to herein as methyl indoxam, with respect to activity, as determined by IC50 assay (Example 1B-1), with respect to cell absorbtion, as determined by in-vitro Caco-2 assay (Example 1B-2) and with respect to bioavailability, as determined using in-vivo mice studies (Example 1B-3).
Bioavailability was calculated as a ratio of AUC-oral/AUC-intravenous (IV). To determine this ratio, a first set of subject animals were given a measured intravenous (IV) dose of ILY-4001, followed by a determination of ILY-4001 levels in the blood at various time points after administration (e.g., 5 minutes through 24 hours). Another second set of animals was similarly dosed using oral administration, with blood levels of ILY-4001 determined at various time points after administration (e.g., 30 minutes through 24 hours). The level of ILY-4001 in systemic circulation were determined by generally accepted methods (for example as described in Evans, G., A Handbook of Bioanalysis and Drug Metabolism. Boca Raton, CRC Press (2004)). Specifically, […]/mass spectrometry/mass spectrometry (LC/MS/MS) analytical methods were used to quantitate plasma concentrations of ILY-4001 after oral and intravenous administration. Pharmacokinetic parameters that were measured include Cmax, AUC, tmax, t1/2, and F (bioavailability).
In this procedure, ILY-4001 was dosed at 3 mg/kg IV and 30 mg/kg oral. […] This indicated about a 72% level of non-absorption of ILY-4001 from the GI tract into systemic circulation.

[2] = in-vivo study on high fat/high sucrose diabetogenic diet (Example 10); set-up: species or system C57BL/6 mice; settings: for fasting glucose levels: low dose 25 mg/kg/day
Procedure: ILY-4001 (FIG. 5) was evaluated as a PLA2 IB inhibitor in a set of experiments using wild-type mice and genetically deficient PLA2 (−/−) mice (also referred to herein as PLA2 knock-out (KO) mice). In these experiments, wild-type and PLA2 (−/−) mice were maintained on a high fat/high sucrose diet, details of which are described below.
Briefly, four groups were set up, each having six mice. Three of the groups included six wild-type PLA2 (+/+) mice in each group (eighteen mice total), and one of the groups included six genetically deficient PLA2 (−/−) mice. One of the wild-type groups was used as a wild-type control group, and was not treated with ILY-4001. The other two wild-type groups were treated with ILY-4001—one group at a lower dose (indicated as “L” in Table 1) of 25 mg/kg/day, and the other at a higher dose (indicated as “H” in Table 1) of 90 mg/kg/day. The group comprising the PLA2 (−/−) mice was used as a positive control group.
The experimental protocol used in this study was as follows. The four groups of mice, including wild type and isogenic PLA2 (−/−) C57BL/J mice were acclimated for three days on a low fat/low carbohydrate diet. After the three day acclimation phase, the animals were fasted overnight and serum samples taken to establish baseline plasma cholesterol, triglyceride, and glucose levels, along with baseline body weight. The mice in each of the treatment groups were then fed a high fat/high sucrose diabetogenic diet (Research Diets D12331). 1000 g of the high fat/high sucrose D12331 diet was composed of casein (228 g), DL-methionine (2 g), maltodextrin 10 (170 g), sucrose (175 g), soybean oil (25 g), hydrogenated coconut oil (333.5 g), mineral mix S10001 (40 g), sodium bicarbonate (10.5 g), potassium citrate (4 g), vitamin mix V10001 (10 g), and choline bitartrate (2 g). This diet was supplemented with ILY-4001 treatments such that the average daily dose of the compound ingested by a 25 g mouse was: 0 mg/kg/day (wild-type control group and PLA2 (−/−) control group); 25 mg/kg/day (low-dose wild-type treatment group), or 90 mg/kg/day (high-dose wild-type treatment group). The animals were maintained on the high fat/high sucrose diet, with the designated ILY-4001 supplementation, for a period of ten weeks.
Body weight measurements were taken for all animals in all treatment and control groups at the beginning of the treatment period and at 4 weeks and 10 weeks after initiation of the study. (See Example 10A). Blood draws were also taken at the beginning of the treatment period (baseline) and at 4 weeks and 10 weeks after initiation of the study, in order to determine fasting glucose (See Example 10B). Cholesterol and triglyceride levels were determined from blood draws taken at the beginning of the treatment (baseline) and at ten weeks. (See Example 10C).

Caco-2 monolayers [3] = assay: Caco-2 permeability study; settings: apical to basolateral
Caco-2 monolayers [4] = test system: Caco-2 monolayers
[5] = low and high doses (25 and 90 mg/kg/day), 10 weeks

T1 sequence (P00592 23-146): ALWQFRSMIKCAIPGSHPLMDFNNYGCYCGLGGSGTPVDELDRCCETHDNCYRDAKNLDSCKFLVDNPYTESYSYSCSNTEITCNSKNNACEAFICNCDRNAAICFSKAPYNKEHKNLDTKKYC

Compound: CCC1=C(CC(N)=O)c2cc(OCCCP(=O)(O)O)ccc2C1Nc1ccccc1 (stereo not shown)
- IC50 (PL A2): sub μM range

Compound: Cc1c(C(=O)C(N)=O)c2c(OCC(=O)O)cccc2n1Cc1ccccc1-c1ccccc1 [ILY-4001, 2-(3-(2-amino-2-oxoacetyl)-1-(biphenyl-2-ylmethyl)-2-methyl-1H-indol-4-yloxy)acetic acid]
- IC50 (Porcine PLA2 IB): 62 nM
- AUC(0-inf) ([1]; iv, 3 mg/kg): 2760 ng·h/mL
- Cmax ([1]; iv, 3 mg/kg): 3170 ng/mL
- Tmax ([1]; iv, 3 mg/kg): 0.083 h
- AUC(0-t) ([1]; mouse, plasma, iv, 3 mg/kg; read-out: AUC 0-24)): 2790 ng·h/mL
- half-life ([1]; iv, 3 mg/kg): 1.03 h
- AUC(0-inf) ([1]; oral, 30 mg/kg): 5730 ng·h/mL
- Cmax ([1]; oral, 30 mg/kg): 2290 ng/mL
- Tmax ([1]; oral, 30 mg/kg): 1 h
- AUC(0-t) ([1]; mouse, plasma; oral, 30 mg/kg; read-out: AUC 0-24)): 5950 ng·h/mL
- half-life ([1]; oral, 30 mg/kg): 1.25 h
- body weight gain compared to wild-type control group ([2]; 25 mg/kg/d and 90 mg/kg/d in diet, week 4 and week 10): significantly reduced
- plasma levels of cholesterol [2, 5]: substantially reduced
- plasma levels of triglycerides [2, 5]: substantially reduced
- fasting glucose levels ([2]; week four): moderately beneficial effect
- fasting glucose levels ([2]; week ten): beneficial effect was not observed
- apparent permeability (Caco-2 monolayers [3]): around 1.66×10^−7 cm/s

- apparent permeability (Caco-2 monolayers [4]): around 2.82×10^−7+/−0.37×10^−7 cm/s
Compound: Lucifer Yellow

— patent US20070292385A1, “Phospholipase Inhibitors Localized in the Gastrointestinal Lumen” (priority 2004, published 2007)
